# Laboratory results from patent US10662225B2, “Backbone cyclized inhibitory peptides of myeloid differentiation factor 88 (MyD88)” (Yissum Research Development Company of the Hebrew …, priority 2016, dated 2020).
# Numbered stars: 1 amine (or outer) side, 2 acyl side, 3 side chain; on linkers, the order of the positions; unused ones are H or OH. Bridge positions count the residues as written; N and C are the ends. Square brackets hold non-standard residues; d marks the D form. Peptide text beside a SMILES is read from it. CO = O=C([*:1])[*:2]; Nlys = NCCCCNCC(=O)O
# Tests used:
# [1] = Parallel Artificial Membrane Permeability Assay (PAMPA); assay type: in vitro ADME; conditions: in comparison to metoprolol
# Source text: FIG. 12. Papp of 4×4MyDI in the PAMPA model in comparison to metoprolol.
# [2] = Metabolic stability in plasma with Brush Border Membrane Vesicles (BBMV); assay type: in vitro ADME; conditions: human; over two hours; read-out: decrease of amount in plasma enriched with BBMV
# Method: (§1) FIGS. 17A and 17B. 4×4MyDI is metabolically stable in comparison to the linear MyDI peptide. 4×4MyDI vs. linear MyDI heptapeptide were incubated independently in either human plasma […] or human plasma supplemented with Brush Border Membrane Vesicles (BBMV, 18B). At various time points the solution was sampled and the amount of remaining compound was determined by quantitative HPLC.
# (§2) Peptide backbone cyclization confers metabolic stability on peptides that are inherently susceptible to degradation by proteases. […] The stability of the compounds was then tested in plasma enriched with Brush Border Membrane Vesicles (BBMV). This system models the degradative conditions of the intestine.
# [3] = test system: NFκB p65 nuclear translocation; assay: NFκB p65 nuclear translocation in HeLa cells stimulated with TNFα or IL-1β; assay type: cell-based
# Method: FIG. 6. HeLa assay showing specificity of MyD88 inhibition. HeLa cells were stimulated with recombinant TNFα or IL-1β and NFkB localization was determined with anti-p65 conjugated to rhodamine. The percent of cells with nuclear localization was determined and is shown in the bar graphs on the right. 6A: Top row, HeLa cells transduced with control shRNA. Second row, shRNA knock-down of MyD88. 6B: Top row, HeLa cells treated with MyD88 inhibitor linear peptide. Bottom row, HeLa cells treated with scrambled control version of the MyD88 inhibitor linear peptide (SEQ ID NO: 5).
# FIG. 7. HeLa assay showing specificity of MyD88 inhibition by 4×4MyDI. HeLa cells were stimulated with recombinant TNFα or IL-1b and NFkB localization was determined with anti-p65 conjugated to rhodamine. The percent of cells with nuclear localization was determined, and is shown in the bar graphs on the right. Top row, HeLa cells with no pre-treatment. Second row, HeLa cells pre-treated for 30 min with the backbone cyclic 4×4MyDI compound.
# Lead compounds were further tested in vitro to confirm the specificity of the inhibition. A fluorescence-based in vitro activity assay that determines the degree of activation of the transcription factor NFκB was established. In this assay, cells are treated with either TNFα or IL-1b, both inflammatory cytokines that activate NFκB. Upon activation, the p65 unit of the NFκB transcription factor re-locates from the cytoplasm to the nucleus. Using fluorescently-tagged antibodies to p65, the cytoplasmic vs. nuclear localization of the factor is determined. Importantly, since the signaling of IL-1b, but not TNFα, is dependent on MyD88, this assay can establish the specificity of the inhibition achieved using the lead compounds.
# Cells were activated with either IL-1β (the signaling of the IL-1 receptor is dependent on MyD88), or with TNFα (signaling of its receptor is independent of MyD88). The activation was measured by the translocation of NFκB from the cytoplasm to the nucleus. As a positive control, a stable MyD88 knock-down cell line was established using lentiviral encoded shRNA.
# Using the same system, when cells were treated with the backbone cyclic peptide 4×4MyDI, activation by IL-1β was blocked, however when treated with TNFα the activation was not inhibited.
# [4] = Metabolic stability in plasma (quantitative HPLC); assay type: in vitro ADME, human
# Method: as §1, §2
# [5] = test system: T cells responding to the self-antigen MOG35-55; assay: Cytokine response of draining lymph node cells of treated EAE mice to MOG35-55; assay type: in vivo; conditions: 4 mg/Kg three times per week until day 11; ex vivo restimulation
# Method: FIGS. 16A and 16B. inhibition of IFNγ and IL-17 secretion in 4×4MyDI treated mice. C57BL/6 mice were immunized with MOG35-55/CFA and administered pertussis toxin on day zero and after 48 h. Groups of mice were treated with 4×4MyDI at 4 mg/kg from day zero, three times a week, and animals were sacrificed on day 11 after immunization. Control mice were treated with an equal volume of PBS using the same schedule of administration. Single cell suspensions from draining lymph nodes were stimulated with different concentrations of MOG35-55 peptide (SEQ ID NO: 4) for three days and supernatants were collected for analysis of cytokines by ELISA.
# Of note, IFNγ and IL-17 are considered pro-inflammatory cytokines that are highly detrimental in the autoimmune process.
# [6] = test system: OCI-LY3 (MyD88 L265P) cells; assay: Proliferation of lymphoma cells (Promega CellTiter viability assay); assay type: cell-based, human; conditions: 48 h; compared with OCI-LY19 (MyD88 WT)
# Method: FIGS. 18A and 18B. 4×4MyDI and Myr-4×4MyDI block proliferation of Ly3 lymphoma cells that carry the L265P oncogenic mutation in MyD88. Cell lines OCI-LY3 (MyD88^L265P) and OCI-LY19 (MyD88^WT) were grown in RPMI supplemented with 10% FCS. Cells were counted and plated at identical concentrations in triplicate wells of 96 well plates and decreasing concentrations of 4×4MyDI […], or Myr-4×4MyDI (19B), was added to the wells. After 48 h cell viability was tested using the Promega CellTiter viability assay according to the manufacturer's instructions. Percent inhibition was calculated as [(1-OD of well with inhibitor/OD of well without inhibitor)*1001. Negative values in A represent enhanced growth in the presence of the inhibitor.
# Genomic DNA was prepared from the human lymphoma cell lines OCI-LY3 (MyD88^L265P) and OCI-LY19 (MyD88^WT) to confirm the presence of the activating L265P mutation in the OCI-Ly3 cells (and the WT sequence in the OCI-Ly19 cells). The MyD88 region was amplified using the forward and reverse primers GGGATATGCTGAACTAAGTTGCCAC (SEQ ID NO: 7) and GACGTGTCTGTGAAGTTGGCATCTC (SEQ ID NO: 8), respectively, as described in Xu, L. et al Blood (2013) 121(11): 2051-2058. The PCR product was sequenced to confirm the mutation.
# The cell lines were incubated alone or with increasing concentrations of the 4×4MyDI. […]
structure (smiles),measurement,setting,value
CC(C)C[C@@H]1NC(=O)[C@H](C(C)C)NC(=O)[C@H](CC(=O)O)NC(=O)[C@H](CCCNC(=N)N)NC(=O)CN(C(=O)[C@@H](N)Cc2c[nH]c3ccccc23)CCCCNC(=O)NCCCCN(CC(=O)NCC(=O)N[C@H](C(N)=O)[C@@H](C)O)C1=O [4×4MyDI] (H-W[Nlys]RDVL[Nlys]GT-NH2; linker 2-7 via CO; N-terminus assumed),passive diffusion through a lipid layer (Papp PAMPA),[1],does not diffuse well through a lipid layer
same,metabolised at 2 h,[2],40%
same,NFκB activation by IL-1β,"[3]; HeLa cells, IL-1β",blocked
same,"Percent p65 nuclear translocation, IL-1β","[3]; HeLa cells, IL-1β (MyD88 dependent)",27%
same,NFκB activation by TNFα,"[3]; HeLa cells, TNFα",not inhibited
same,"Percent p65 nuclear translocation, TNFα","[3]; HeLa cells, TNFα (MyD88 independent)",97%
same,"Percent p65 nuclear translocation, No stimulation","[3]; HeLa cells, no stimulation",0%
same,specificity of MyD88 inhibition,[3]; IL-1β versus TNFα,specific inhibitor
same,metabolised at 4 h,"[4]; human, human plasma, over the following two hours (hours 2-4), read-out: decrease of amount in plasma",20%
same,stability in plasma,"[4]; plasma, 4×4MyDI: first two hours",completely stable
same,IFNγ produced by T cells responding to MOG35-55,[5],complete inhibition
same,IL-17 produced by T cells responding to MOG35-55,[5],complete inhibition
same,proliferation of OCI-Ly3 cells,[6],specifically blocked proliferation
